Assay [1] has as its system Escherichia coli. Nature of the assay: Antibacterial activity against Escherichia coli 1356 at 64 ug/ml incubated for 24 hrs serial dilution method. Type of assay: functional, organism-based.
In assay [2] the test system is Staphylococcus aureus. In words: Antibacterial activity against multidrug-resistant Staphylococcus aureus CCARM 3167 at 64 ug/ml incubated for 24 hrs serial dilution method. The class given is functional, organism-based.
Assay [3] concerns Staphylococcus aureus. Nature of the assay: Antibacterial activity against quinolone-resistant Staphylococcus aureus CCARM 3519 at 64 ug/ml incubated for 24 hrs serial dilution method. The class given is functional, organism-based.
Assay [4] relates to Staphylococcus aureus. In words: Antibacterial activity against Staphylococcus aureus RN 4220 at 64 ug/ml incubated for 24 hrs serial dilution method. The class given is functional, organism-based.
Assay [5] has as its system Staphylococcus aureus. In words: Antibacterial activity against Staphylococcus aureus KCTC 209 at 64 ug/ml incubated for 24 hrs serial dilution method. Type of assay: functional, organism-based.
Assay [6] has as its system Staphylococcus aureus. In words: Antibacterial activity against quinolone-resistant Staphylococcus aureus CCARM 3505 at 64 ug/ml incubated for 24 hrs serial dilution method. The class given is functional, organism-based.
Assay [7] concerns Staphylococcus aureus. In words: Antibacterial activity against Staphylococcus aureus KCTC 503 at 64 ug/ml incubated for 24 hrs serial dilution method. Type of assay: functional, organism-based.
Assay [8] deals with Staphylococcus aureus. In words: Antibacterial activity against multidrug-resistant Staphylococcus aureus CCARM 3506 at 64 ug/ml incubated for 24 hrs serial dilution method. Type of assay: functional, organism-based.
The subject of assay [9] is Staphylococcus aureus. Nature of the assay: Antibacterial activity against multidrug-resistant Staphylococcus aureus CCARM 3506 incubated for 24 hrs serial dilution method. The class given is functional. Conditions: CCARM 3506, 24 h.
Assay [10] has as its system Staphylococcus aureus. In words: Antibacterial activity against Staphylococcus aureus RN 4220 incubated for 24 hrs serial dilution method. The class given is functional. Conditions: RN 4220, 24 h.
The test system of assay [11] is Staphylococcus aureus. In words: Potency index, ratio of MIC for norfloxacin to MIC for compound against multidrug-resistant Staphylococcus aureus CCARM 3506 incubated for 24 hrs serial dilution method. Type of assay: functional.
Assay [12] has as its system Staphylococcus aureus. In words: Antibacterial activity against quinolone-resistant Staphylococcus aureus CCARM 3519 incubated for 24 hrs serial dilution method. Type of assay: functional. The note with it: CCARM 3519, 24 h.
In assay [13] the test system is Staphylococcus aureus. In words: Antibacterial activity against Staphylococcus aureus KCTC 209 incubated for 24 hrs serial dilution method. Type of assay: functional. The note with it: KCTC 209, 24 h.
Assay [14] concerns Staphylococcus aureus. In words: Potency index, ratio of MIC for norfloxacin to MIC for compound against quinolone-resistant Staphylococcus aureus CCARM 3505 incubated for 24 hrs serial dilution method. The class given is functional.
In assay [15] the test system is Staphylococcus aureus. Nature of the assay: Antibacterial activity against quinolone-resistant Staphylococcus aureus CCARM 3505 incubated for 24 hrs serial dilution method. The class given is functional. Conditions: CCARM 3505, 24 h.
The subject of assay [16] is Staphylococcus aureus. Nature of the assay: Antibacterial activity against Staphylococcus aureus KCTC 503 incubated for 24 hrs serial dilution method. Conditions: KCTC 503, 24 h. The class given is functional.
Assay [17] concerns Staphylococcus aureus. In words: Potency index, ratio of MIC for norfloxacin to MIC for compound against quinolone-resistant Staphylococcus aureus CCARM 3519 incubated for 24 hrs serial dilution method. The class given is functional.
The test system of assay [18] is Escherichia coli. Nature of the assay: Antibacterial activity against Escherichia coli 1356 incubated for 24 hrs serial dilution method. The class given is functional. The note with it: Escherichia coli, 1356, 24 h.
The subject of assay [19] is Staphylococcus aureus. Nature of the assay: Antibacterial activity against multidrug-resistant Staphylococcus aureus CCARM 3167 incubated for 24 hrs serial dilution method. Type of assay: functional. The note with it: CCARM 3167, 24 h.
The subject of assay [20] is Staphylococcus aureus. Nature of the assay: Potency index, ratio of MIC for norfloxacin to MIC for compound against multidrug-resistant Staphylococcus aureus CCARM 3167 incubated for 24 hrs serial dilution method. The class given is functional.

SMILES strings stand for the structures. In brackets after ≈: the same amount, converted by molar mass. Activity calls are given as the source filed them.

In general, MIC refers to the smallest concentration in the dilution series that meets the test's criterion for growth inhibition. A high value points to a need for much substance.

`Cc1cccc(Oc2c(C=O)c(C)nn2-c2ccccc2)c1`: the result in the assay on Escherichia coli [1], in the assay with Staphylococcus aureus [2], with Staphylococcus aureus [3], in the assay on Staphylococcus aureus [4], with Staphylococcus aureus [5] and with Staphylococcus aureus [6] was inactive. The result with Staphylococcus aureus [7] and in the assay with Staphylococcus aureus [8] was inactive.
Consider `Cc1nn(-c2ccccc2)c(Oc2ccc(F)cc2)c1C=O`, for which the result in the assay with Escherichia coli [1], in the assay with Staphylococcus aureus [2], with Staphylococcus aureus [3], with Staphylococcus aureus [4], in the assay with Staphylococcus aureus [5] and with Staphylococcus aureus [6] was inactive. The outcome in the assay with Staphylococcus aureus [7] and with Staphylococcus aureus [8] was inactive.
In the case of `Cc1ccc(Oc2c(C=O)c(C)nn2-c2ccccc2)cc1`, the result in the assay on Escherichia coli [1], with Staphylococcus aureus [2], in the assay on Staphylococcus aureus [3], in the assay on Staphylococcus aureus [4], in the assay with Staphylococcus aureus [5] and in the assay on Staphylococcus aureus [6] was inactive. Also, the outcome in the assay with Staphylococcus aureus [7] and with Staphylococcus aureus [8] was inactive.
Turning to `Cc1nn(-c2ccccc2)c(Oc2ccc(Br)cc2)c1C=O`, the result in the assay on Escherichia coli [1], in the assay with Staphylococcus aureus [2], with Staphylococcus aureus [3], with Staphylococcus aureus [4], in the assay on Staphylococcus aureus [5] and with Staphylococcus aureus [6] was inactive. Moreover, the outcome in the assay on Staphylococcus aureus [7] and in the assay on Staphylococcus aureus [8] was inactive.
As to `Cc1nn(-c2ccccc2)c(Oc2ccccc2Cl)c1C=O`, the result in the assay on Escherichia coli [1], with Staphylococcus aureus [2], with Staphylococcus aureus [3], in the assay on Staphylococcus aureus [4], with Staphylococcus aureus [5] and in the assay on Staphylococcus aureus [6] was inactive. The result with Staphylococcus aureus [7] and with Staphylococcus aureus [8] was inactive.
`Cc1ccccc1Oc1c(C=O)c(C)nn1-c1ccccc1`: the outcome in the assay with Escherichia coli [1], in the assay with Staphylococcus aureus [2], with Staphylococcus aureus [3], with Staphylococcus aureus [4], with Staphylococcus aureus [5] and in the assay on Staphylococcus aureus [6] was inactive. Also, the result in the assay on Staphylococcus aureus [7] and in the assay with Staphylococcus aureus [8] was inactive.
Take `COc1ccc(Oc2c(C=O)c(C)nn2-c2ccccc2)cc1`: the outcome in the assay on Escherichia coli [1], in the assay with Staphylococcus aureus [2], in the assay on Staphylococcus aureus [3], with Staphylococcus aureus [4], in the assay with Staphylococcus aureus [5] and in the assay on Staphylococcus aureus [6] was inactive. The result with Staphylococcus aureus [7] and in the assay with Staphylococcus aureus [8] was inactive.
With `COc1ccccc1Oc1c(C=O)c(C)nn1-c1ccccc1`, the result in the assay with Escherichia coli [1], in the assay on Staphylococcus aureus [2], in the assay on Staphylococcus aureus [3], with Staphylococcus aureus [4], with Staphylococcus aureus [5] and in the assay on Staphylococcus aureus [6] was inactive. For the same molecule, the result in the assay on Staphylococcus aureus [7] and in the assay on Staphylococcus aureus [8] was inactive.
Regarding `Cc1ccc(Oc2c(C=O)c(C)nn2-c2ccccc2)c(C)c1`, the outcome with Escherichia coli [1], in the assay on Staphylococcus aureus [2], with Staphylococcus aureus [3], in the assay on Staphylococcus aureus [4], in the assay on Staphylococcus aureus [5] and in the assay with Staphylococcus aureus [6] was inactive. Also, the result with Staphylococcus aureus [7] and in the assay with Staphylococcus aureus [8] was inactive.
As to `Cc1nn(-c2ccccc2)c(Oc2cccc(C(F)(F)F)c2)c1C=O`, the outcome in the assay with Escherichia coli [1], in the assay on Staphylococcus aureus [2], with Staphylococcus aureus [3], in the assay on Staphylococcus aureus [4], in the assay on Staphylococcus aureus [5] and in the assay on Staphylococcus aureus [6] was inactive. Moreover, the result in the assay with Staphylococcus aureus [7] and in the assay on Staphylococcus aureus [8] was inactive.
With `Cc1nn(-c2ccccc2)c(Oc2ccc(Cl)cc2)c1C=O`, the outcome with Escherichia coli [1], with Staphylococcus aureus [2], in the assay with Staphylococcus aureus [3], in the assay on Staphylococcus aureus [4], with Staphylococcus aureus [5] and in the assay with Staphylococcus aureus [6] was inactive. The outcome with Staphylococcus aureus [7] and in the assay on Staphylococcus aureus [8] was inactive.
Turning to `Cc1nn(-c2ccccc2)c(Oc2cccc(Cl)c2)c1C=O`, the outcome in the assay on Escherichia coli [1], in the assay with Staphylococcus aureus [2], in the assay with Staphylococcus aureus [3], in the assay with Staphylococcus aureus [4], with Staphylococcus aureus [5] and in the assay on Staphylococcus aureus [6] was inactive. The result in the assay on Staphylococcus aureus [7] and in the assay on Staphylococcus aureus [8] was inactive.
Take `Cc1nn(-c2ccccc2)c(Oc2ccc3ccccc3c2)c1C=O`: the outcome in the assay on Escherichia coli [1], in the assay with Staphylococcus aureus [2], in the assay with Staphylococcus aureus [3], in the assay on Staphylococcus aureus [4], in the assay on Staphylococcus aureus [5] and with Staphylococcus aureus [6] was inactive. Moreover, the result in the assay on Staphylococcus aureus [7] and in the assay on Staphylococcus aureus [8] was inactive.
As to `Cc1nn(-c2ccccc2)c(Oc2ccccc2Cl)c1/C=C1\SC(=S)N([C@@H](Cc2ccccc2)C(=O)O)C1=O`, the MIC against Staphylococcus aureus [9] was 8 µg/mL (≈ 13.9 µM); against Staphylococcus aureus [10], 8 µg/mL (≈ 13.9 µM); in the assay on Staphylococcus aureus [12] it was 8 µg/mL (≈ 13.9 µM); with Staphylococcus aureus [13], greater than 64 µg/mL; against Staphylococcus aureus [15], 8 µg/mL (≈ 13.9 µM); in the assay on Staphylococcus aureus [16], greater than 64 µg/mL. For the same molecule, the MIC was greater than 64 µg/mL against Escherichia coli [18] and 8 µg/mL (≈ 13.9 µM) in the assay on Staphylococcus aureus [19]. Also, the Ratio is given as 2 with Staphylococcus aureus [11], 4 in the assay with Staphylococcus aureus [14], 4 in the assay on Staphylococcus aureus [17] and 2 in the assay on Staphylococcus aureus [20].
In the case of `Cc1ccc(Oc2c(/C=C3\SC(=S)N([C@@H](Cc4ccccc4)C(=O)O)C3=O)c(C)nn2-c2ccccc2)cc1`, the MIC in the assay with Staphylococcus aureus [9] is 8 µg/mL (≈ 14.4 µM); against Staphylococcus aureus [10] it was 4 µg/mL (≈ 7.2 µM); against Staphylococcus aureus [12] it was 4 µg/mL (≈ 7.2 µM); against Staphylococcus aureus [13] it was greater than 64 µg/mL; with Staphylococcus aureus [15], 4 µg/mL (≈ 7.2 µM); in the assay with Staphylococcus aureus [16], greater than 64 µg/mL. Moreover, the results for the MIC with Escherichia coli [18] and against Staphylococcus aureus [19] were greater than 64 µg/mL and 4 µg/mL (≈ 7.2 µM), respectively. Moreover, the Ratio in the assay on Staphylococcus aureus [11] was 2; with Staphylococcus aureus [14] it was 4; with Staphylococcus aureus [17], 4; in the assay on Staphylococcus aureus [20], 2.
As for `Cc1nn(-c2ccccc2)c(Oc2ccccc2)c1C=O`, the outcome in the assay with Escherichia coli [1], in the assay with Staphylococcus aureus [2], in the assay on Staphylococcus aureus [3], with Staphylococcus aureus [4], with Staphylococcus aureus [5] and in the assay with Staphylococcus aureus [6] was inactive. Moreover, the outcome with Staphylococcus aureus [7] and in the assay on Staphylococcus aureus [8] was inactive.
`Cc1nn(-c2ccccc2)c(Oc2c(Cl)cccc2Cl)c1C=O`: the result in the assay with Escherichia coli [1], in the assay on Staphylococcus aureus [2], in the assay on Staphylococcus aureus [3], with Staphylococcus aureus [4], in the assay on Staphylococcus aureus [5] and in the assay on Staphylococcus aureus [6] was inactive. The result in the assay with Staphylococcus aureus [7] and in the assay with Staphylococcus aureus [8] was inactive.
Regarding `Cc1nn(-c2ccccc2)c(Oc2ccc(F)cc2)c1/C=C1\SC(=S)N([C@@H](Cc2ccccc2)C(=O)O)C1=O`, the MIC in the assay on Staphylococcus aureus [9] was 8 µg/mL (≈ 14.3 µM); with Staphylococcus aureus [10], 8 µg/mL (≈ 14.3 µM); against Staphylococcus aureus [12], 8 µg/mL (≈ 14.3 µM); against Staphylococcus aureus [13] it was greater than 64 µg/mL; against Staphylococcus aureus [15] it was 8 µg/mL (≈ 14.3 µM); in the assay with Staphylococcus aureus [16], greater than 64 µg/mL. Further, the MIC is greater than 64 µg/mL against Escherichia coli [18] and 4 µg/mL (≈ 7.15 µM) in the assay on Staphylococcus aureus [19]. Moreover, the Ratio is recorded as 2 with Staphylococcus aureus [11], 4 in the assay with Staphylococcus aureus [14], 4 in the assay with Staphylococcus aureus [17] and 2 in the assay on Staphylococcus aureus [20].
`Cc1nn(-c2ccccc2)c(Oc2ccccc2)c1/C=C1\SC(=S)N([C@@H](Cc2ccccc2)C(=O)O)C1=O`: the MIC against Staphylococcus aureus [9] is 4 µg/mL (≈ 7.38 µM); with Staphylococcus aureus [10] it was 8 µg/mL (≈ 14.8 µM); with Staphylococcus aureus [12], 8 µg/mL (≈ 14.8 µM); in the assay with Staphylococcus aureus [13] it was greater than 64 µg/mL; against Staphylococcus aureus [15], 8 µg/mL (≈ 14.8 µM); in the assay with Staphylococcus aureus [16], greater than 64 µg/mL. The MIC is greater than 64 µg/mL with Escherichia coli [18] and 4 µg/mL (≈ 7.38 µM) against Staphylococcus aureus [19]. The Ratio was 2 with Staphylococcus aureus [11], 4 in the assay with Staphylococcus aureus [14], 4 with Staphylococcus aureus [17] and 2 in the assay on Staphylococcus aureus [20].

For the origin of these results see ChEMBL document CHEMBL2203015, “Synthesis and biological evaluation of 5-aryloxypyrazole derivatives bearing a rhodanine-3-aromatic acid as potential antimicrobial agents” (Bioorg Med Chem Lett, 2012).
